Experimental findings from patent US20220000957A1, “COMPOSITION FOR ALLEVIATING SYMPTOMS OF ANDROPAUSE, CONTAINING EXTRACT OF FICUS AURICULATA LOUR. AS ACTIVE INGREDIENT” (KOREA RESEARCH INSTITUTE OF BIOSCiENCE AND BIOTECHNOLOGY, priority 2018, published 2022) are described below.

Where “and” joins values, the source holds several entries; their conditions need not be identical. Identical values can stand only once.

The test system of assay [1] is prostate-specific antigen (PSA). The assay can be described thus: Inhibition of testosterone-induced prostate-specific antigen (PSA) expression in LNCaP cells, real-time RT-PCR. Format: cell-based. Conditions: testosterone 100 nM, 24 hours, no extract. How it is done:
Reverse transcription-real-time polymerase chain reaction (real-time RT-PCR) was used to measure the inhibition of expression of prostate-specific antigen (PSA) in testosterone-induced prostate cancer cell lines (LNCaP cells). Specifically, the prostate cancer cell line (LNCaP cells) was dispensed to a 6 well plate at 5×10^5 cells/well. After incubating for 24 hours in an incubator under conditions of 37° C. and 5% CO2, Ficus auriculata Lour. fruit extract of each country of origin (Vietnam, Nepal, Myanmar, Bangladesh, China, Laos) was added at 100 μg/ml and incubated for 3 hours. Testosterone 100 nM was added to each well except for the control and incubated for 24 hours. After incubation for 24 hours, the supernatant was removed, total RNA was extracted using Trizol, and cDNA was synthesized using PrimeScript RT Master Mix (Takara, Japan). The synthesized cDNA was subjected to real-time polymerase chain reaction using TOPreal qPCR 2×PreMIX (Enzynomics, Korea).
Reverse transcription-real-time polymerase chain reaction (real-time RT-PCR) was used to measure the inhibition of expression of prostate-specific antigen (PSA) in testosterone-induced prostate cancer cell lines (LNCaP cells). Specifically, the prostate cancer cell line (LNCaP cells) was dispensed to a 6 well plate at 5×10^5 cells/well. […]
(In general: Real-time PCR tracks product formation cycle by cycle.)

For a further assay, the system named is androgen receptor (AR). In words: Androgen receptor (AR) expression in LNCaP cells, real-time RT-PCR. Type of assay: cell-based. Conditions: no extract.

Consider `C[C@]12CC[C@H]3[C@@H](CCC4=CC(=O)CC[C@@]43C)[C@@H]1CC[C@@H]2O` [testosterone], for which, in assay [1], the “PSA expression increased by testosterone” value is 190% and 180%. The “expression of AR increased by testosterone” value in the assay on androgen receptor (AR) turned out to be 140%.
